Earlier results on two compounds are cited in patent publication US20210268046A1, “CANNABINOID & PROBIOTIC SUPPOSITORIES & METHODS OF USE” (HoneyHills TX, LLC, priority 2020, published 2021).

The conditions of the data set: for psychotic symptoms: acute paranoid schizophrenia.

For `C=C(C)[C@@H]1CCC(C)=C[C@H]1c1c(O)cc(CCCCC)cc1O` [cannabidiol, Cannabidiol], the psychotic symptoms result is “significant decrease”. Further, the side effects result (compared with Amisuipride) is listed as “fewer side effects”. `CCN1CCCC1CNC(=O)c1cc(S(=O)(=O)CC)c(N)cc1OC` (stereo not drawn) [Amisuipride]: the psychotic symptoms entry is recorded as “significant decrease”.
